According to patent publication US20140113869A1, “Gbetagamma BINDING SITE ON THE PIK3CB GENE PRODUCT AND METHODS OF USE” (Albert Einstein College of Medicine of Yeshiva University, priority 2011, published 2014):
Ends that are not written are not given here. * marks the point of attachment. Myristoyl = CCCCCCCCCCCCCC(=O)*

Assays:
[1] = system: p85/p110β dimers activated by Gβγ; assay: In vitro activation of p85/p110β dimers by Gβγ (lipid kinase activity); assay type: biochemical; settings: peptide 5-fold in excess of Gβγ; FIG. 5
Experimental: FIG. 5. Percent stimulation of p85/p110β dimers incubated without or with Gβγ in the absence or presence of 5-1Old excess peptide. Pep=p110β peptide. Scram=scrambled peptide control.
(§1) FIG. 9A-9D. Peptide inhibitors of Gβγ -mediated p110β/p85 activation are specific for p85/p110β. (9A) Myristoylated p110β peptides or SIGK peptide were preincubated with biotinylated Gβγ or 5 min, followed by addition of phage particles displaying the SIGK peptide, After a 1 h incubation at room temperature, Anti-M-13 phase monoclonal antibody was added followed by addition of Streptavidin coated Alphascreen donor beads and protein A coated Alphascreen acceptor beads. After a 2 h incubation, the Alphascreen signal was read on a Perkin Elmer Envision Multilabel Plate reader. […] Bound proteins were analyzed by western blot. […] The cells were fixed and the number of GFP punctae per cell was counted using a Nikon Eclipse 400 microscope with 60× 1.4 N.A. optics. […]

[2] = system: Gβγ activation of Akt (pT308-Akt) in NIH3T3 cells; assay: pT308-Akt blotting in NIH3T3 cells transfected with Gβγ; assay type: cell-based; settings: for Gβγ activation of Akt (pT308-Akt): myristoylated vs TAT-tagged vs unmodified peptide, FIG. 6B
Experimental: FIG. 6A-6B. (6A) NIH3T3 cells were transfected without or with Gβγ and incubated with scrambled (control) or p110β peptide. pT308-Akt was measured by blotting. (6B) Cell transfected as above were incubated with myristoylated peptide, TAT-tagged peptide, or unmodified peptide. pT308-Akt was measured by blotting.
(§2) To test the possibility that small molecules targeting the p110β-Gβγ interface could be used as therapeutics, a peptide was designed derived from the Gβγ-binding loop in p110β. having the sequence […] (SEQ ID NO:6) a scrambled version of the peptide serves as a negative control. […] The test whether the peptide could be efficacious in vivo, we created a cell permeable myristylated version of the peptide. The peptide blocked activation of Akt in cells transfected with Gβγ (FIG. 6A); the peptide's inhibitory activity required its entry into the cells, since both myristoylated and TAT-tagged peptide inhibited Gβγ activation of Akt, whereas unlabeled peptide had no effect (FIG. 6B). The myristoylated peptide blocked the formation of colonies in soft agar (FIG. 7A) and the formation of foci (FIG. 7B), both measures of transformation, in NIH3T3 cells transfected with p85/p110β.

Gβγ = assay: Alphascreen competition with phage-displayed SIGK peptide for binding to biotinylated Gβγ; settings: FIG. 9A
Experimental: as §1

[3] = system: NIH3T3 cells transfected with p110β/p85; assay: Wound healing (wound closure) migration assay; assay type: cell-based; settings: 30 μM peptide; wound closure after 24h; FIG. 8
Experimental: FIG. 8. NIH3T3 cells were transfected without or with p85/p110β. Confluent monolayers were scratched with a pipette tip, and wound closure after 24h was measured in the absence or presence of 30 μM p110β peptide or scrambled control peptide
as §2

p110β = p110β expression in peptide-treated transfected cells; assay type: cell-based; settings: FIG. 7
Experimental: (§3) FIG. 7A-7B. (7A). NIH3T3 cells were transfected without or with p85/p110β and incubated without or with 30 μM p110β peptide or scrambled control peptide. Colony formation in soft agar by cells transfected and treated with peptide as above. (7B). Foci were measured after 2 weeks.

[4] = system: recombinant adenylyl cyclase; assay: Synergistic activation of adenylyl cyclase by Gβγ and Gαs in Sf9 cell membranes; assay type: biochemical; settings: 30 μM peptide; 20 nM Gsα, 20 nM Gβγ; FIG. 9D
[5] = system: NIH3T3 cells transfected with p85/p110β; assay: Colony formation in soft agar; assay type: cell-based; settings: 30 μM peptide; FIG. 7A
Experimental: as §3, §2

p110β binding to Rab5 = target: T1, p110β binding to Rab5 (Homo sapiens, UniProt P42338); assay: p110β binding to immobilized GST-Rab5 (pull-down from HEK293T lysates); settings: FIG. 9E
T1 construct: expressed in transfected cells; host or cells: HEK293T (p85α and p110β)
Experimental: as §1

PC3 cells = assay: PC-3 chemotaxis in Boyden chambers; assay type: cell-based; settings: 20 μM peptide; toward 10% PBS; FIG. 10C
Experimental: (§4) FIG. 10A-10C. Inhibition of prostate cancer cell proliferation and chemotaxis: (A) Proliferation of PC-3 cells was measured by the MTS assay in the absence or presence of 30 μM myristoylated p110β-derived peptide or scrambled peptide. (B) Proliferation assays were performed on two PTEN-null endometrial cancer cell lines (AN3CA and RL95-2) and one PTEN positive endometrial cell line (KLE) grown in the absence or presence of myristoylated p110β-derived peptide or scrambled peptide. (C) PC-3 cells chemotaxis toward 10% […] in the absence or presence of 20 μM p110β-derived peptide or scrambled peptide was measured in Boyden chambers.
(§5) Finally, the peptide was evaluated for effects on the growth of PC3 prostate cancer cells, which are known to require p110β for growth. […] Importantly, published studies have shown that kinase-dead p110β can rescue cell growth in cell lines where proliferation is inhibited by p110β knockout. Since currently available p110β inhibitors target the active site of p110β and act by inhibiting its kinase activity, they would not be expected to suppress the growth of cells that depend on p110β for growth. In contrast, the p110β peptide described here inhibits p110β by a distinct mechanism, and is likely to be more efficacious at suppressing the growth of p110β-dependent prostate cancer cells than active site inhibitors.

[6] = system: NIH3T3 cells transfected with p85/p110β; assay: Foci formation; assay type: cell-based; settings: 30 μM peptide; foci measured after 2 weeks; FIG. 7B
Experimental: as §3, §2

[7] = system: HEK293A cells expressing GFP-LC3; assay: p110β-dependent induction of autophagy, GFP-LC3 punctae in HEK293A cells; assay type: cell-based; settings: PBS containing 100 nM rapamycin, 2 h; FIG. 9F
Experimental: as §1

Class IB PI3K p101/p110γ = assay: Gβγ-dependent activation of p101/p110γ, pT308-Akt western blot in HEK293E cells; assay type: cell-based; settings: FIG. 9C
Experimental: as §1

[8] = system: PC3 prostate cancer cells; assay: PC-3 cell proliferation, MTS assay; assay type: cell-based; settings: 30 μM peptide; FIG. 10A
Experimental: as §4, §5

T1 sequence (P42338 whole entry): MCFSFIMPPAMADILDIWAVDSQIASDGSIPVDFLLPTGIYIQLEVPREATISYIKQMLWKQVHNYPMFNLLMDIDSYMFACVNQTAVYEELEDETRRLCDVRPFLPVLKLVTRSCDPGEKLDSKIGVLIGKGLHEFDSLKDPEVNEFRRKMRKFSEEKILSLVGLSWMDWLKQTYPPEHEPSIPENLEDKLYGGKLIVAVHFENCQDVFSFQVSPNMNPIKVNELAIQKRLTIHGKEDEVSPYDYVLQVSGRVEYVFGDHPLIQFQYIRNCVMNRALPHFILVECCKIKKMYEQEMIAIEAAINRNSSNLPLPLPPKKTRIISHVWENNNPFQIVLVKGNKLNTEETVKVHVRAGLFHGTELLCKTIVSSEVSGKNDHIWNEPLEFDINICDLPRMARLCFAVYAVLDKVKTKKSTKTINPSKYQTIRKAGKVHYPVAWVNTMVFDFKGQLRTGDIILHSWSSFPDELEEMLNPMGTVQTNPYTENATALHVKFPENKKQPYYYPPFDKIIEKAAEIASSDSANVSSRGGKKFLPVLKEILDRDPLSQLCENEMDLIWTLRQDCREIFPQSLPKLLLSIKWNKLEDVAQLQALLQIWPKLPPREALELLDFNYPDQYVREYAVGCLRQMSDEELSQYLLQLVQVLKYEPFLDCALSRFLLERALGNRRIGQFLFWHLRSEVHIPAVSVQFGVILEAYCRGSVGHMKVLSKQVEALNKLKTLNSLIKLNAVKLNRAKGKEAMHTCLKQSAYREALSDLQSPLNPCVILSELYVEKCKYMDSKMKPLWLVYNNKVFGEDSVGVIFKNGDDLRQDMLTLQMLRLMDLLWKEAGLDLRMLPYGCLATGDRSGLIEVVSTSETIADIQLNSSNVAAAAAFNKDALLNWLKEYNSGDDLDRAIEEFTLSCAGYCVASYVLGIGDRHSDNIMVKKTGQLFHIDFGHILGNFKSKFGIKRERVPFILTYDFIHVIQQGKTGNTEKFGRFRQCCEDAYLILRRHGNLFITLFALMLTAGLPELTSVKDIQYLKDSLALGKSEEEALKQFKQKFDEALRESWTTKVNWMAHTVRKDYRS

| Substance | activation of p110β by Gβγ [1] | Gβγ activation of Akt (pT308-Akt) [2] | competition with the binding to Gβγ of SIGK peptide (Gβγ) | enhanced migration in a wound healing assay [3] | p110β expression (p110β) | synergistic activation of adenylyl cyclase by Gβγ and Gαs [4] | formation of colonies in soft agar [5] | p110β binding to Rab5 (p110β binding to Rab5) | PC3 cells chemotaxis toward serum (PC3 cells) | formation of foci [6] | p110β-dependent induction of autophagy [7] | Gβγ-dependent activation of the Class IB PI3K p101/p110γ (Class IB PI3K p101/p110γ) | PC3 cells number (growth) [8] | activation of Akt in cells transfected with Gβγ (pT308-Akt) ([2]; NIH3T3 cells, FIG. 6A) |
| --- | --- | --- | --- | --- | --- | --- | --- | --- | --- | --- | --- | --- | --- | --- |
| KAAEIASSDSANVSSRGGKKFLPV (SEQ ID NO:6) [peptide] | markedly reduces | no effect |  |  |  |  |  |  |  |  |  |  |  |  |
| myristoylated peptide: cell permeable myristylated version of the p110β peptide KAAEIASSDSANVSSRGGKKFLPV (SEQ ID NO:6) (Myristoyl-KAAEIASSDSANVSSRGGKKFLPV) |  | inhibited | did not compete | blocked | did not reduce | no effect | blocked | no effect | inhibited | blocked | no effect | no effect | caused a decrease | blocked |
